Where only a bound is given, the exact number is not on record here.

One test deals with T1, Adrenergic α1D (Homo sapiens, UniProt P25100).
T1 construct: expressed in transfected cells; host or cells: CHO-K1 mAeq
The test can be described thus: Aequorin assay, Adrenergic α1D. The conditions noted are these: antagonism, CHO-K1 mAeq, read-out: Activity (Antagonism: IC50), Adrenergic a1D. It is filed as cell-based. Here is the method: (§1) Receptor […] activity assays were performed using 8′OH-2-CF3-dihydroergotamine (8′OH-2-CF3-DHE). Table 1 summarizes the cell lines (CHO-K1/HEK293 transfected with relevant human receptor) and the assays performed to detect any agonist or antagonist activity.
(§2) Aequorin assays were conducted to monitor activity for 8′OH-2CF3-dihydroergotamine (8′OH-2CF3-DHE) against the receptors indicated in Table 1 above (except for mGlu3 and mGlu5). CHO-K1 cells coexpressing mitochondrial apoaequorin and the recombinant human receptor of interest were grown to mid-log phase in culture media without antibiotics and then detached with PBS-EDTA, centrifuged and resuspended in assay buffer (DMEM/HAM's F12 with HEPES, without phenol red+0.1% BSA, protease free) at a concentration of 1×10^6 cell/mL. […]
(§3) 50 μL of the cell suspension was mixed with 50 μL of test or reference agonist in a 96-well plate. The resulting emission of light was recorded using Hamamatsu Functional Drug Screening System 6000 (FDSS 6000) luminometer. […]
(§4) To standardize the emission of recorded light (and determine of the “100% signal”) across plates and across different experiments, some wells contained 100 μM digitonin or a saturating concentration of ATP (20 μM).

The target in the next test is T2, Serotonin 5-HT1A (Homo sapiens, UniProt P08908).
T2 construct: expressed in transfected cells; host or cells: CHO-K1 (membrane extracts)
In words: GTPγ[35S] assay, Serotonin 5-HT1A. It is filed as biochemical. Conditions: agonism, CHO-K1 membranes. Here is the method:
as §1
GTPγS studies were conducted to monitor agonist activity for 8′OH-2CF3-dihydroergotamine (8′OH-2CF3-DHE) against the receptors indicated in Table 1 above. Reagents used were the following: Assay buffer (20 mM HEPES, pH 7.4; 100 mM NaCl; 10 μg/mL saponin; 30 mM MgCl2); Membranes (recombinant human receptor membrane extracts were thawed on ice and diluted in assay buffer to give 1000 μg/mL ([…]) and kept on ice); GDP (diluted in assay buffer to give 30 μM solution (3 μM final concentration); beads (PVT-WGA (Amersham, RPNQ001), diluted in assay buffer at 25 mg/mL (0.25 mg/10 μL)); GTPγ^35S (Perkin Elmer, NEG030X), diluted in assay buffer to give 0.1 nM (final concentration); and ligand (agonist/antagonist diluted in assay buffer).
Membranes were mixed with GDP (1:1) and incubated for at least 15 minutes on ice. In parallel GTPγ^35S was mixed with the beads (1:1) just before starting the reaction. […] The plates were then centrifuged for 10 minutes at 2000 rpm and incubated at room temperature for 1 hour and counted for 1 min/well with a Perkin Elmer TopCount reader.

Another test addresses T3, CCK2 (Homo sapiens, UniProt P32239).
T3 construct: expressed in transfected cells; host or cells: CHO-AEQ
The test can be described thus: Aequorin assay, Cholecystokinin CCK2. In kind it is cell-based. Conditions: antagonism, CHO-AEQ. The protocol: as §1, §2, §3, §4

The next test has as its target T4, OX1 (Homo sapiens, UniProt O43613).
T4 construct: expressed in transfected cells; host or cells: CHO-AEQ (CHO-K1 coexpressing mitochondrial apoaequorin)
In words: Aequorin assay, Orexin OX1. In kind it is cell-based. The conditions noted are these: antagonism, CHO-AEQ. The protocol: as §1, §2, §3, §4

The target in a further test is T5, Adenosine A2a (Homo sapiens, UniProt P29274).
T5 construct: expressed in transfected cells; host or cells: HEK293
In words: cAMP HTRF assay, Adenosine A2a. The conditions noted are these: agonism; HEK293, cAMP. In kind it is cell-based. The protocol: as §1
cAMP HTRF (Gs) studies were conducted to monitor activity for 8′OH-2CF3-dihydroergotamine (8′OH-2CF3-DHE) against the receptors indicated in Table 1 above. Cells expressing the human recombinant receptor of interest were grown in media without antibiotic and detached by gentle flushing with PBS-EDTA (5 mM EDTA), recovered by centrifugation and resuspended in assay buffer (KRH: 5 mM KCl, 1.25 mM MgSO4, 124 mM NaCl, 25 mM HEPES, 13.3 mM glucose, 1.25 mM KH2PO4, 1.45 mM CaCl2, 0.5 g/L BSA). Dose response curves were performed in parallel with the reference compounds. For agonist tests (96-well plates), 12 μL of cells was mixed with 12 μL of the test compound at increasing concentrations and then incubated for 30 minutes at room temperature. Lysis buffer was added and after a 1 hour incubation, cAMP concentrations was determined according to the manufacturer specification with the HTRF kit. […] Lysis buffer was added and after a 1 hour incubation, cAMP concentrations were determined according to the manufacturer specification, with the HTRF kit.
(In general: Time-resolved FRET reads energy transfer from a long-lived donor to a nearby acceptor.)

T5 sequence (P29274 whole entry): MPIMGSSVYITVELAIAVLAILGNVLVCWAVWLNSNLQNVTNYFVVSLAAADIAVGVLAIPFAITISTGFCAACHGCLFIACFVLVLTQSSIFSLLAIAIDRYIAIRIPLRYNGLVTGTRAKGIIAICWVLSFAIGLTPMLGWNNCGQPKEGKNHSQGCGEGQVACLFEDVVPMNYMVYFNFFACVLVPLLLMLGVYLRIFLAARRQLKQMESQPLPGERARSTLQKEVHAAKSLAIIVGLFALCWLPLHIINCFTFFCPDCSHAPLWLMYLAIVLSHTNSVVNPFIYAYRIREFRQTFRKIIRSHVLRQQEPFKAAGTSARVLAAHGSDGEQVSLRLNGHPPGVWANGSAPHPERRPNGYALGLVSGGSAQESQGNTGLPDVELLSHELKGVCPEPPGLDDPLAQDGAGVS
T2 sequence (P08908 whole entry): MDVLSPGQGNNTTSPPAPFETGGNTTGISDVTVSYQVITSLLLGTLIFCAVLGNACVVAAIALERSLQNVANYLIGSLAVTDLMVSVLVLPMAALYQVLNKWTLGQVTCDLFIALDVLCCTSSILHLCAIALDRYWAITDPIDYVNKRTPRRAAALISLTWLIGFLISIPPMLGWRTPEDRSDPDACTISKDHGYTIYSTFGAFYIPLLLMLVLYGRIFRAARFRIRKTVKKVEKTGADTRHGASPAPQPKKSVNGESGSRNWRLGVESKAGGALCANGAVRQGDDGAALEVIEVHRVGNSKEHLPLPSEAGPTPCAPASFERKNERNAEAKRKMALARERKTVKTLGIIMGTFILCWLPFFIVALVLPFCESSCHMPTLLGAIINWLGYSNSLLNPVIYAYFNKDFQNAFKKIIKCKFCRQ
T4 sequence (O43613 whole entry): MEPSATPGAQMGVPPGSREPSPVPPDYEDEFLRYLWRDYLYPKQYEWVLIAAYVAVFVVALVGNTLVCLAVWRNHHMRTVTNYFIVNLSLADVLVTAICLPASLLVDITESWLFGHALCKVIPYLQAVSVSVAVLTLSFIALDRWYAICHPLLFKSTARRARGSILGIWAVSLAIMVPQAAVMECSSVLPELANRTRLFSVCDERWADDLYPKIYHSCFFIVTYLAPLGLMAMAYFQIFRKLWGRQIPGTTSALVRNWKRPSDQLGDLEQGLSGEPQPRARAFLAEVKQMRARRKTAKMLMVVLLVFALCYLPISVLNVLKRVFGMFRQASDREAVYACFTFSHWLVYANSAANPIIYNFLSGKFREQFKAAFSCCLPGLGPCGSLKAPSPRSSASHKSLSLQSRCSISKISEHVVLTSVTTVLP
T3 sequence (P32239 whole entry): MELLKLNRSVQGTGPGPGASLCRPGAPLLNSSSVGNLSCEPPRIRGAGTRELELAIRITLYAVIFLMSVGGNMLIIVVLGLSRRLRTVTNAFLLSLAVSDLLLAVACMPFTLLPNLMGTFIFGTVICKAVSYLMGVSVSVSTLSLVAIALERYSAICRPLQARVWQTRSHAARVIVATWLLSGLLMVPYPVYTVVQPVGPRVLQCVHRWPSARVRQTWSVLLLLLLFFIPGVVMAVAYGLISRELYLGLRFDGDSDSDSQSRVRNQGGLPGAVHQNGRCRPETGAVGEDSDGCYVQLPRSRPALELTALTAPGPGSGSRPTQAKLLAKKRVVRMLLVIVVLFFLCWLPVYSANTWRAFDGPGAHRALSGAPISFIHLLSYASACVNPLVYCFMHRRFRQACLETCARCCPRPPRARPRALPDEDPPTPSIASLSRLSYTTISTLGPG
T1 sequence (P25100 whole entry): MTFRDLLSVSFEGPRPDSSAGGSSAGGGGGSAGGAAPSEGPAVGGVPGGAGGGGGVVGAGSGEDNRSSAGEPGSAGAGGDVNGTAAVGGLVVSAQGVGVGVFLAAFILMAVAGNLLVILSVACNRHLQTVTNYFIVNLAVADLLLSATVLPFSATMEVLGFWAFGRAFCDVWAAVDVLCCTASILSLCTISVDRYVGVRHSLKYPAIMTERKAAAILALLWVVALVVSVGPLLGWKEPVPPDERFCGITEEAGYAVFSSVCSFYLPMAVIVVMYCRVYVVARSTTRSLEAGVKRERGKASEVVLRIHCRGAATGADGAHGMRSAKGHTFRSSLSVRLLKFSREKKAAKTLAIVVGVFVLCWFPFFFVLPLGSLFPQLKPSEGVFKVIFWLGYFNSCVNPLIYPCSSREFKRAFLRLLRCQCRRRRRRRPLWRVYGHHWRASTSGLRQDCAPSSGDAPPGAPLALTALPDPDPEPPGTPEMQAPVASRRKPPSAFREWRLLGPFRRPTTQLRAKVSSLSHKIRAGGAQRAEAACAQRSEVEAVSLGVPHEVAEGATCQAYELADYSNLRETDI

In the case of `CN1C[C@H](C(=O)N[C@]2(C)O[C@@]3(O)[C@@H]4CC[C@@H](O)N4C(=O)[C@H](Cc4ccccc4)N3C2=O)C[C@@H]2c3cccc4[nH]c(C(F)(F)F)c(c34)C[C@H]21` [8′OH-2-CF3-DHE, 8′-Hydroxy-2-CF3-dihydroergotamine], the IC50 on Adrenergic α1D is 9.58 nM; against CCK2, greater than 10000 nM; on OX1, greater than 10000 nM. Also, the half-maximal effective concentration (EC50) at Serotonin 5-HT1A was 425 nM; on Adenosine A2a, 5.27 nM. In addition, at Adenosine A2a, the Emax came to 25%.

As usually defined, the IC50 is the concentration that inhibits the measured activity by half. A word on the EC50: it is the concentration that produces a half-maximal response. As usually defined, the Emax is the size of the effect at its maximum, as opposed to the concentration needed.

These data come from US20150238487A1, “NOVEL ERGOLINE DERIVATIVES AND USES THEREOF” (MAP Pharmaceuticals, Inc., priority 2012, published 2015).
